Data from the CheMixHub viscosity set.

Test: xn = mol fraction of the nth substance listed

CCOC(=O)C(C)O (centres undefined) + CCC(C)=O
101 kPa
Details	viscosity [mPa·s]
298.15 K, x1 = 0.6999	1.375
308.15 K, x1 = 0.8	1.345
308.15 K, x1 = 0.9001	1.595
318.15 K, x1 = 0.1999	0.4415

CC/C=C\CCO + CCCCCC
viscosity [mPa·s], 100 kPa
Details	293.15 K	298.15 K	303.15 K	308.15 K	313.15 K	318.15 K
x1 = 0.025	0.3277	0.3128	0.3002	0.2869	0.2756	0.2648
x1 = 0.0501	0.3397	0.3264	0.3121	0.2966	0.2844	0.2727
x1 = 0.1	0.3655	0.3504	0.3343	0.3164	0.3024	0.2892
x1 = 0.2001	0.4403	0.4139	0.392	0.369	0.3498	0.3318
x1 = 0.2999	0.5582	0.5227	0.4881	0.4558	0.4197	0.3967
x1 = 0.4003	0.6649	0.6196	0.5788	0.5377	0.497	0.467
x1 = 0.4994	0.8527	0.7851	0.7244	0.6686	0.6173	0.5715
x1 = 0.5998	1.103	1.005	0.9179	0.8404	0.7733	0.7131
x1 = 0.6998	1.451	1.306	1.18	1.07	0.978	0.889
x1 = 0.7995	1.878	1.701	1.522	1.366	1.238	1.126
x1 = 0.8996	2.51	2.234	1.981	1.763	1.58	1.429

CCCCC + CCCCCC
298.15 K, 101.33 kPa
Details	viscosity [mPa·s]
x1 = 0.1045	0.2898
x1 = 0.2098	0.2802
x1 = 0.3107	0.2724
x1 = 0.4113	0.2641
x1 = 0.5105	0.2574
x1 = 0.6025	0.2497
x1 = 0.7041	0.2432
x1 = 0.7966	0.2364
x1 = 0.8997	0.228
